Patent US8252822B2, “Heterocyclic compounds and uses as anticancer agents” (Acea Biosciences, Inc., priority 2007, dated 2012)
Like-named read-outs stand apart in the source and are kept apart here.

How the values were obtained:
H460 = assay: RT-CES cell proliferation inhibition, H460; type: cell-based; conditions: Homo sapiens, NCI-H460
Source text: (§1) The biological activity of compounds disclosed herein was monitored and profiled using the Real-Time Cell Electronic Sensing (RT-CES®) system from ACEA Biosciences, Inc. The RT-CES system utilizes cell-substrate impedance technology to monitor cellular behavior inside tissue culture wells in a microtiter plate format. The technology features in the integration of molecular and cell biology with microelectronics and is based on the electronic detection of biological assay process. The details of this cell electronic sensing technology and associated devices, systems and methods of use as described in U.S. provisional application No. 60/379,749, filed on Jul. […]
(§2) For measurement of cell-substrate or cell-electrode impedance using RT-CES technology, microelectrodes having appropriate geometries are fabricated onto the bottom surfaces of microtiter plate or similar device, facing into the wells. […] When there are changes to the biological status of the cells analogue electronic readout signals are measured automatically and in real time, and are converted to digital signals for processing and for analysis. In a RT-CES system, a cell index (arbitrary representation of change in impedance) is automatically derived and provided based on measured electrode impedance values. […]
(§3) To quantify cell status based on the measured cell-electrode impedance, a parameter termed Cell Index is derived. […]

HT1080 = assay: RT-CES cell proliferation inhibition, HT1080; type: cell-based; conditions: Homo sapiens, HT-1080
Source text: as §1, §2, §3

[1] = tested on: a number of cancer cell lines (MCF7adr, PC3, KB, KB200, Bcap37); assay: RT-CES time-dependent cell index, a number of cancer cell lines (FIG. 10, 11); type: cell-based, human; conditions: various concentrations
Source text: as §1, §2, §3

SKOV3 = assay: RT-CES cell proliferation inhibition, SKOV3; type: cell-based; conditions: Homo sapiens, SK-OV-3
Source text: as §1, §2, §3

MCF7adr = assay: RT-CES cell proliferation inhibition, MCF7adr; type: cell-based; conditions: Homo sapiens, NCI/ADR-RES
Source text: as §1, §2, §3

KB200 = assay: RT-CES cell proliferation inhibition, KB200; type: cell-based; conditions: Homo sapiens
Source text: as §1, §2, §3

Br.CCOc1ccc(Nc2nc(-c3c(C)nc4sccn34)cs2)cc1 [Compound 27, 2-(4-ethoxyphenyl)amino-4-(6-methylimidazo[2,1-b]thiazol-5-yl)thiazole]
IC50 (H460; H460, 24 hrs after compound treatment, read-out: IC50 (24 hr)): 12.3 nM
IC50 (H460; H460, 48 hrs after compound treatment, read-out: IC50 (48 hr)): 16 nM
IC50 (HT1080; HT1080, 24 hrs, read-out: IC50 (24 hr)): 2.39 nM
IC50 (HT1080; HT1080, 48 hrs, read-out: IC50 (48 hr)): 2.69 nM
inhibitory effect on the proliferation of a number of cancer cell lines [1]: exhibited inhibitory effect on the proliferation of a number of cancer cell lines
IC50 (SKOV3; SKOV3, 24 hrs, read-out: IC50 (24 hr)): 19.8 nM
IC50 (SKOV3; SKOV3, 48 hrs, read-out: IC50 (48 hr)): 11.5 nM
IC50 (MCF7adr; 24 hrs, read-out: IC50 (24 hr)): 12.3 nM
IC50 (MCF7adr; 48 hrs, read-out: IC50 (48 hr)): 12.5 nM
IC50 (KB200; KB200, 24 hrs, read-out: IC50 (24 hr)): 12.1 nM
IC50 (KB200; KB200, 48 hrs, read-out: IC50 (48 hr)): 4.28 nM
